Assay results from article PMC7115530 (European Journal of Medicinal Chemistry, 2012).

Target: SARS-CoV 3CL^pro (Severe acute respiratory syndrome coronavirus, UniProt P0C6X7)
Format: biochemical

CC(C)C[C@H](NC(=O)[C@@H](NC(=O)[C@H](C)NC(=O)OCc1ccccc1)C(C)C)C(=O)N[C@H](C#N)CCC(N)=O [Cbz-AVLQ-CN]
increase in potency over the other inhibitors tested: ~10 fold
